Source: patent US4576951A, “Proglumide, pharmaceutical preparations and compositions including it for use in human pain relief” (priority 1983, dated 1986)
Like-named read-outs stand apart in the source and are kept apart here.

Tests used:
[1] = Potentiation of analgesic effect of enkephalinamide (DALA) i.c.v. (Tail Flick test); format: in vivo, rats
Protocol: Potentiation of the analgesic activities of enkephalins induced by proglumide
In order to check one of the possible mechanisms for the action of proglumide, that is its possible inhibition of the enzymatic degradation of endogenous enkephalins, the following experiment was carried out:
A cannula was implanted in the right lateral ventricle of male rats having a weight of 150-200 g (groups of five animals were used) in order to allow the intracerebroventricular (I.C.V.) administration of drugs according to the method of Noble et al (Life Science 6, (1970) 281-291). […]

[2] = format: in vivo, rats
Protocol: The method is that described by Harris et al. (J. Pharmcol. Exp. Ther. 143 (1964) 141-148).
Male rats are used which have a weight of about 150-200 g and which have not been fasting. A point is chosen on the tail and this is irradiated by a heat source (75° C.) and the time (in seconds) for which the animal remains without moving its tail is measured.
A maximum period of time under the heat source of 8 seconds is chosen after which the animal is, in any case, removed in order to avoid tissue damage. The measurement is effected before (controls) and after treatment with the drugs. […] The percentage variation is calculated for each individual animal by the following formula: [formula] (time measurements are in seconds)
The measurements are carried out 10, 20, 30, 45, 60 and 90 minutes after treatment with the analgesics.

[3] = Tail Flick Test after transcutaneous shock: analgesic activity of endogenous opiates; format: in vivo, rats
Protocol: Influence of proglumide on the analgesic activity of endogenous opiates released under transcutaneous shock in rats measured by the Tail Flick Test The method is that described by Lewis et al. (J. Naurosc. 1, 358 (1981)). Male rats having a weight of about 200 g, which have not been fasting, are used. The animals are stressed by the application to the front leg of a 60 Hz-2.5 mA current in pulses of a duration of one second every five seconds for 20 minutes. This stress regime causes the release of endogenous opiates.

[4] = Hot plate test: potentiation of analgesic activity of opiates; format: in vivo, rats; conditions: proglumide 5 mg/kg s.c.
Protocol: The method is that described by Eddy et al. (J. Pharmac. Exp. Therm. 107, 385 (1953)).
Groups of five male rats having a weight of about 150 g and which have not been fasting are used.
The animals are placed on a metal plate which is on the bottom of a transparent cylinder heated to 55°±1° C. by an azeotropic boiling mixture (1:1 acetone-ethyl formate). The time which passes between the moment at which the animal is placed on the hot plate and the moment at which it licks its feet or tries to jump out of the cylinder is defined as the reaction time. The control reaction time is measured 10 and 5 minutes before the administration of the drugs and 10, 20, 30, 45, 60, 90 minutes afterwards. The animals are left on the plate for a maximum period of 30 seconds. The response to the administration of the product is considered positive if at least a doubling of the normal reaction time is seen. The results obtained are given in Table 2 which records the groups treated, the doses administered and the stay times on the plate expressed as the number of positive responses over the number treated.

[5] = in vivo; conditions: mouse, sc
Protocol: The drug (or drugs) under examination was administered sub-cutaneously. The animals were kept under observation for 15 days after the administration.
Ten animals were used for each dose.

[6] = format: in vivo, rats; remark: listed apart in the source
Protocol: Activity of proglumide as an antagonist to the tolerance induced by opiates
Groups of five male rats having a weight of about 200-250 g were used.
The determination of the pain threshold was effected 1, 3, 6, 9 and 12 hours after the first treatment by the Tail Flick test.
The data given in Table 5 indicate the percentage variations in the latency (appearance of pain) before and after treatment with the drugs.

[7] = 1 min, proglumide 20 mg/kg, no stress
[8] = 1 min, stress + proglumide 1 mg/kg
[9] = 1 min, stress + proglumide 5 mg/kg
[10] = 1 min, stress + proglumide 20 mg/kg
[11] = 5 min, proglumide 20 mg/kg, no stress
[12] = 5 min, stress + proglumide 1 mg/kg
[13] = 5 min, stress + proglumide 5 mg/kg
[14] = 5 min, stress + proglumide 20 mg/kg
[15] = 10 min, proglumide 20 mg/kg, no stress
[16] = 10 min, stress + proglumide 1 mg/kg
[17] = 10 min, stress + proglumide 5 mg/kg
[18] = 10 min, stress + proglumide 20 mg/kg
[19] = 15 min, proglumide 20 mg/kg, no stress
[20] = 15 min, stress + proglumide 1 mg/kg
[21] = 15 min, stress + proglumide 5 mg/kg
[22] = 15 min, stress + proglumide 20 mg/kg

Compound: CCCN(CCC)C(=O)C(CCC(=O)O)NC(=O)c1ccccc1 (racemic) [Proglumide, D,L-4-benzamido-N, N-dipropylglutaramic acid]
- % variation in the latency to pain ([1]; 5 min, alone i.c.v.: proglumide 1 or DALA 10 μg/kg): 18.06 ± 10.8%
- % variation in the latency to pain ([1]; 15 min, alone i.c.v.: proglumide 1 or DALA 10 μg/kg): 2.18 ± 10.6%
- % variation in the latency to pain ([1]; 30 min, alone i.c.v.: proglumide 1 or DALA 10 μg/kg): 18.36 ± 5.9%
- % variation in the latency to pain ([1]; 45 min, alone i.c.v.: proglumide 1 or DALA 10 μg/kg): -10.94 ± 14.5%
- % variation in the latency to pain ([1]; 60 min, alone i.c.v.: proglumide 1 or DALA 10 μg/kg): -5.58 ± 8.1%
- % variation in the latency to pain ([1]; 90 min, alone i.c.v.: proglumide 1 or DALA 10 μg/kg): 13.3 ± 8.4%
- Average (0 → 90) % variation in the latency to pain ([1]; alone i.c.v.: proglumide 1 or DALA 10 μg/kg): 5.9 ± 5.12%
- action on the analgesic effect of the enkephalinamide (DALA) ([1]; i.c.v.): potentiating action of proglumide on the analgesic effect of the enkephalinamide (DALA) both in intensity and duration
- significance of potentiating action on DALA analgesia ([1]; proglumide 1 μg/kg): highly significant
- ED50 for potentiation of the analgesic effect (proglumide increasing effect by 50%) ([2]; rat, in vivo, ip): 4.15 mg/kg
- ED50 for potentiation of the analgesic effect (proglumide increasing effect by 50%) ([2]; strengthening of propoxyphene): 2.26 mg/kg
- Average latency (tail flick) [3, 7]: 3.66 ± 0.25 s
- t (vs control stress) [3, 7]: 6.90
- t (vs control) [3, 7]: 0.37
- t (vs control stress) [3, 8]: 0.92
- t (vs control) [3, 8]: 5.21
- t (vs control stress) [3, 9]: 0.87
- t (vs control) [3, 9]: 4.25
- t (vs control stress) [3, 10]: 6.14
- t (vs control) [3, 10]: 9.54
- Average latency (tail flick) ([3]; 1 min after shock, stress + proglumide 1 mg/kg): 6.37 ± 0.45 s
- Average latency (tail flick) ([3]; 1 min after shock, stress + proglumide 5 mg/kg): 6.33 ± 0.57 s
- Average latency (tail flick) ([3]; 1 min after shock, stress + proglumide 20 mg/kg): 13.59 ± 1.0 s
- Average latency (tail flick) [3, 11]: 3.59 ± 0.20 s
- t (vs control stress) [3, 11]: 5.88
- t (vs control) [3, 11]: 1.36
- t (vs control stress) [3, 12]: 0.69
- t (vs control) [3, 12]: 5.18
- t (vs control stress) [3, 13]: 2.74
- t (vs control) [3, 13]: 5.62
- t (vs control stress) [3, 14]: 3.90
- t (vs control) [3, 14]: 7.29
- Average latency (tail flick) ([3]; 5 min after shock, stress + proglumide 1 mg/kg): 6.55 ± 0.43 s
- Average latency (tail flick) ([3]; 5 min after shock, stress + proglumide 5 mg/kg): 8.5 ± 0.76 s
- Average latency (tail flick) ([3]; 5 min after shock, stress + proglumide 20 mg/kg): 9.16 ± 0.67 s
- Average latency (tail flick) [3, 15]: 3.57 ± 0.16 s
- t (vs control stress) [3, 15]: 2.57
- t (vs control) [3, 15]: 0.12
- t (vs control stress) [3, 16]: 0.86
- t (vs control) [3, 16]: 1.83
- t (vs control stress) [3, 17]: 0.72
- t (vs control) [3, 17]: 2.98
- t (vs control stress) [3, 18]: 5.01
- t (vs control) [3, 18]: 7.02
- Average latency (tail flick) ([3]; 10 min after shock, stress + proglumide 1 mg/kg): 4.07 ± 0.22 s
- Average latency (tail flick) ([3]; 10 min after shock, stress + proglumide 5 mg/kg): 4.66 ± 0.32 s
- Average latency (tail flick) ([3]; 10 min after shock, stress + proglumide 20 mg/kg): 6.94 ± 0.44 s
- Average latency (tail flick) [3, 19]: 3.57 ± 0.15 s
- t (vs control stress) [3, 19]: 0.04
- t (vs control) [3, 19]: 1.49
- t (vs control stress) [3, 20]: 0.43
- t (vs control) [3, 20]: 0.82
- t (vs control stress) [3, 21]: 0.98
- t (vs control) [3, 21]: 0.11
- t (vs control stress) [3, 22]: 3.34
- t (vs control) [3, 22]: 2.89
- Average latency (tail flick) ([3]; 15 min after shock, stress + proglumide 1 mg/kg): 3.68 ± 0.16 s
- Average latency (tail flick) ([3]; 15 min after shock, stress + proglumide 5 mg/kg): 3.81 ± 0.16 s
- Average latency (tail flick) ([3]; 15 min after shock, stress + proglumide 20 mg/kg): 4.78 ± 0.32 s
- effect on the analgesic effect of endogenous enkephalins ([3]; proglumide 5 mg/kg): can increase (in one case significantly)
- effect on the analgesic effect of endogenous enkephalins ([3]; proglumide 20 mg/kg): significantly more marked both in intensity and duration
- increase of the analgesic effect of morphine and methadone [4]: at least double
- LD50 at 360 h [5]: > 5000 mg/kg
- antagonism of development of tolerance ([6]; proglumide 20 mg/kg): highly significant
- effect on development of tolerance induced by morphine ([6]; rat, in vivo, ip): opposes the development of tolerance
